Data published in article PMC4629079 (Acta Pharmaceutica Sinica. B, 2014).
Where two headings read alike, the source gives them in different places.

Key:
HSV-1 = experiment: Anti-HSV-1 CPE assay in Vero cells; assay type: cell-based, HSV-1 virus
B/Jifang/13/97 = experiment: Anti-influenza B CPE assay; assay type: cell-based
Cox B3 = experiment: Anti-Coxsackie B3 CPE inhibitory assay in Vero cells; assay type: cell-based, Coxsackie viruses (Cox B3 Nancy strain); conditions: for IC50: Cox B3, 158TCID50, CPE, Reed and Muench
A/FM/1/47 = experiment: Anti-influenza A CPE inhibitory assay in MDCK cells; assay type: cell-based, influenza A/FM/1/47(H1N1); conditions: for IC50: CPE, Reed and Muench

Row | Compound | IC50 (HSV-1; Human alphaherpesvirus 1, Vero) [µM] | IC50 (B/Jifang/13/97; Influenza B virus) [µM] | IC50 (Cox B3; Vero) [µM] | IC50 (A/FM/1/47; Influenza A virus, MDCK) [µM] | also measured
1 | Nc1nc2c(ncn2COCCO)c(=O)[nH]1 [ACV, Acyclovir, reference compound] | 1.82 |  |  |  | 
2 | COC(=O)c1cc2c(OC)cc(N)cc2[nH]1 [Compound 1f, Methyl 6-amino-4-methoxy-1H-indole-2-carboxylate] | > 33.7 | > 33.7 | > 33.7 | < 52 | IC50 (A/FM/1/47): 33.7 µM
3 | COC(=O)c1cc2c(OCc3ccccc3)cc(NC(C)=O)cc2[nH]1 [Compound 2e, Methyl 6-acetamido-4-(benzyloxy)-1H-indole-2-carboxylate] | > 21.9 |  | > 21.9 | > 65.7 | 
4 | COC(=O)c1cc2c(OCc3ccccc3)cc(N)cc2[nH]1 [Compound 2f, Methyl 6-amino-4-(benzyloxy)-1H-indole-2-carboxylate] | > 2.78 |  | 1.59 | > 25.1 | 
5 | COC(=O)c1cc2c(OCc3ccc(F)cc3)cc(N)cc2[nH]1 [Compound 3f, Methyl 6-amino-4-(4-fluorobenzyloxy)-1H-indole-2-carboxylate] | > 7.87 |  | 4.55 | > 70.8 | 
6 | COC(=O)c1cc2c(OCc3ccc(OC)cc3)cc(N)cc2[nH]1 [Compound 4f, Methyl 6-amino-4-(4-methoxybenzyloxy)-1H-indole-2-carboxylate] | > 7.58 |  | > 7.58 | > 205 | 
7 | COC(=O)c1cc2c(OCC3CCCCC3)cc(N)cc2[nH]1 [Compound 5f, Methyl 6-amino-4-(cyclohexylmethoxy)-1H-indole-2-carboxylate] | > 8.15 |  | > 2.71 | > 8.15 | 
8 | C=CCOc1cc(N)cc2[nH]c(C(=O)OC)cc12 [Compound 6f, Methyl 4-(allyloxy)-6-amino-1H-indole-2-carboxylate] | > 30.1 | > 30.1 | < 50 | < 52 | IC50 (Cox B3): 30.1 µM
9 | COC(=O)c1cc2c(OC3CC3)cc(N)cc2[nH]1 [Compound 7f, Methyl 6-amino-4-cyclopropoxy-1H-indole-2-carboxylate] | > 85.5 |  | 49.4 | > 85.5 | 
10 | COC(=O)c1cc2c(OCC(C)C)cc(NC(C)=O)cc2[nH]1 [Compound 8e, Methyl 6-acetamido-4-isobutoxy-1H-indole-2-carboxylate] | > 24.4 | > 8.13 | > 24.4 | 8.13 | 
11 | COC(=O)c1cc2c(OCC(C)C)cc(N)cc2[nH]1 [Compound 8f, Methyl 6-amino-4-isobutoxy-1H-indole-2-carboxylate] | > 28.3 | > 9.43 | 7.18 | 9.43 | 
12 | CCOc1cc(N)cc2[nH]c(C(=O)OC)cc12 [Compound 9f, Methyl 6-amino-4-ethoxy-1H-indole-2-carboxylate] | > 31.7 | > 31.7 | > 31.7 | 18.3 | 
13 | COC(=O)c1cc2c(OC(C)C)cc(N)cc2[nH]1 [Compound 10f, Methyl 6-amino-4-isopropoxy-1H-indole-2-carboxylate] | > 89.6 | > 89.6 | > 89.6 | < 52 | IC50 (A/FM/1/47): 51.7 µM
14 | COC(=O)c1cc2c(OC)cccc2[nH]1 [Compound 11e, Methyl 4-methoxy-1H-indole-2-carboxylate] | > 108 | > 108 | 108 | 62.6 | 
15 | COC(=O)c1cc2c(OCc3ccccc3)cc(OC)cc2[nH]1 [Compound 12e, Methyl 4-(benzyloxy)-6-methoxy-1H-indole-2-carboxylate] | > 7.94 | > 23.8 | > 7.94 |  | 
16 | COC(=O)c1cc2c(OCc3ccccc3)cccc2[nH]1 [Compound 13e, Methyl 4-(benzyloxy)-1H-indole-2-carboxylate] | > 8.79 | > 26.4 | > 8.79 | < 52 | IC50 (A/FM/1/47): 26.4 µM
17 | COC(=O)c1cc2ccc(NC(C)=O)cc2[nH]1 [Compound 14e, Methyl 6-acetamido-1H-indole-2-carboxylate] | > 287 | > 95.8 | 72.8 | 95.8 | anti-Cox B3 activity (in words) (Cox B3): showed anti-Cox B3 activity; anti-influenza A activity (in words) (A/FM/1/47): showed anti-influenza A activity
18 | COC(=O)c1cc2ccc(N)cc2[nH]1 [Compound 14f, Methyl 6-amino-1H-indole-2-carboxylate] | > 117 | 13 | 67.5 | 7.53 | antiviral activity against the influenza B strain (in words) (B/Jifang/13/97): displayed antiviral activity; anti-Cox B3 activity (in words) (Cox B3): showed anti-Cox B3 activity; anti-influenza A activity (in words) (A/FM/1/47): showed anti-influenza A activity
19 | COC(=O)c1cc2ccc(N(C)C)cc2[nH]1 [Compound 15e, Methyl 6-(dimethylamino)-1H-indole-2-carboxylate] | 102 | > 102 | < 50 | 102 | activity towards HSV-1 (in words) (HSV-1): showed activity; anti-Cox B3 activity (in words) (Cox B3): showed anti-Cox B3 activity; IC50 (Cox B3): 44.7 µM; anti-influenza A activity (in words) (A/FM/1/47): showed anti-influenza A activity
20 | COC(=O)c1cc2c(OC)ccc(N)c2[nH]1 [Compound 16f, Methyl 7-amino-4-methoxy-1H-indole-2-carboxylate] | > 33.7 |  | > 33.7 | > 3.73 | 
21 | CCOc1ccc(N)c2[nH]c(C(=O)OC)cc12 [Compound 17f, Methyl 7-amino-4-ethoxy-1H-indole-2-carboxylate] | 10.6 |  | 10.6 | > 10.6 | activity towards HSV-1 (in words) (HSV-1): showed activity
22 | CCCOc1ccc(N)c2[nH]c(C(=O)OC)cc12 [Compound 18f, Methyl 7-amino-4-propoxy-1H-indole-2-carboxylate] | > 29.9 |  | < 50 | > 3.31 | IC50 (Cox B3): 29.9 µM
23 | CCOC(=O)C1=C[C@@H](OC(CC)CC)[C@H](NC(C)=O)[C@@H](N)C1 [Oseltamivir, oseltamivir, reference compound] |  | 115 |  | 6.43 | 
24 | NC(=O)c1ncn([C@@H]2O[C@H](CO)[C@@H](O)[C@H]2O)n1 [RBV, ribavirin, reference compound] |  | 10.1 | 1060 | 2.58 | 
25 | Methyl 6-acetimidamido-4-methoxy-1H-indole-2-carboxylate [Compound 1e] |  |  |  |  | IC50 (B/Jifang/13/97): 254 µM; antiviral activity against the influenza B strain (in words) (B/Jifang/13/97): displayed antiviral activity; IC50 (HSV-1; HSV-1, 100TCID50, CPE, Reed and Muench): > 254 µM; IC50 (Cox B3): > 254 µM; IC50 (A/FM/1/47): 254 µM
